Experimental data as given in ChEMBL document CHEMBL1133923, “Evolution of anti-HIV drug candidates. Part 3: Diarylpyrimidine (DAPY) analogues” (Bioorg Med Chem Lett, 2001).
pIC50: −log10 of the molar value.

Assays:
Assay in all cases: microbe, parasite or virus in culture
[1] = system: Human immunodeficiency virus 1; conditions: Human immunodeficiency virus 1, MT4
Description: Inhibitory activity against 103N strain of HIV-I in MT-4 cells

[2] = system: Human immunodeficiency virus 1; conditions: Human immunodeficiency virus 1, MT4; remark: listed apart in the source
Description: Inhibitory activity against LAI strain of HIV-I in MT-4 cells

[3] = system: Human immunodeficiency virus 1; conditions: Human immunodeficiency virus 1, MT4; remark: listed apart in the source
Description: Inhibitory activity against 181C strain of HIV-I in MT-4 cells

[4] = system: Human immunodeficiency virus 1; conditions: Human immunodeficiency virus 1, MT4; remark: listed apart in the source
Description: Inhibitory activity against 188L strain of HIV-I in MT-4 cells

[5] = system: Human immunodeficiency virus 1; conditions: Human immunodeficiency virus 1, MT4; remark: listed apart in the source
Description: Inhibitory activity against 100I strain and 103N strain of HIV-I in MT-4 cells

[6] = system: Human immunodeficiency virus 1; assay type: functional, organism-based, MT4
Description: Inhibitory activity against 103N strain and 181C strain of HIV-I in MT-4 cells

[7] = system: Human immunodeficiency virus 1; conditions: Human immunodeficiency virus 1, MT4; remark: listed apart in the source
Description: Inhibitory activity against 100I strain of HIV-I in MT-4 cells

[8] = Human immunodeficiency virus 1, MT4

Structure (SMILES) | pIC50 [1] | pIC50 [2] | pIC50 [3] | pIC50 [4] | pIC50 [5] | pIC50 [6, 8] | pIC50 [7] | pIC50 ([6]; mt4)
Cc1cc(C#N)cc(C)c1Oc1nc(Nc2ccc(C#N)cc2)ncc1N | 8.89 | 9.00 | 8.03 | 8.24 | 6.55 | 7.85 | 7.80 | 
Cc1cc(Br)c(Nc2ccnc(Nc3ccc(C#N)cc3)n2)c(Br)c1 | 8.52 | 9.15 | 8.47 | < 4.00 | < 4.00 | 6.88 | 8.52 | 
Cc1cc(C)c(Nc2nc(Nc3ccc(C#N)cc3)ncc2Cl)c(C)c1 | 8.22 | 8.57 | 7.49 | 7.47 | 6.50 | 6.86 | 7.77 | 
Cc1cc(Br)cc(C)c1Nc1ccnc(Nc2ccc(C#N)cc2)n1 | 7.92 | 8.64 | 7.77 | 7.16 | < 4.00 | 6.82 | 7.12 | 
Cc1cc(C#N)cc(C)c1Oc1nc(Nc2ccc(C#N)cc2)nc(N)c1Br [ETRAVIRINE] | 8.92 | 8.85 | 8.15 | 8.34 | 7.72 | 8.37 | 8.48 | 
N#Cc1ccc(Nc2cc(Cc3c(Cl)cccc3Cl)nc(N)n2)cc1 | 4.48 | 8.00 | < 4.00 | < 4.00 |  |  | 4.02 | 
C#Cc1cnc(Nc2ccc(C#N)cc2)nc1Nc1c(C)cc(C)cc1C | 8.21 |  |  |  | 7.15 | 7.38 |  | 
Cc1cc(C#N)cc(C)c1Oc1nc(Nc2ccc(C#N)cc2)ncc1Cl | 8.59 | 8.85 | 7.47 | 8.32 | 6.86 | 7.42 | 8.12 | 
Cc1cnc(Nc2ccc(C#N)cc2)nc1Nc1c(C)cc(C#N)cc1C | 8.77 | 9.10 | 7.92 | 7.80 | < 5.00 | 6.79 | 7.80 | 
CC(=O)Nc1cnc(Nc2ccc(C#N)cc2)nc1Oc1c(C)cc(C#N)cc1C | 8.48 |  |  |  | 6.69 | 7.52 |  | 
N#Cc1ccc(Nc2nccc(Nc3c(F)cc(Br)cc3Br)n2)cc1 | 8.24 | 9.22 | 7.82 | 7.19 | < 5.00 |  | 7.82 | 
N#Cc1ccc(Nc2nccc(Nc3c(Cl)cc(Cl)cc3Cl)n2)cc1 | 8.52 | 9.15 | 8.00 | 7.00 | < 5.00 |  | 7.85 | 
Cc1cc(C)c(Nc2nc(Nc3ccc(C#N)cc3)ncc2C)c(C)c1 | 8.59 | 8.77 | 7.92 | 7.74 | < 4.00 | 7.28 | 7.92 | 
Cc1cc(C#N)cc(C)c1Nc1nc(Nc2ccc(C#N)cc2)ncc1Br | 9.40 | 9.40 | 8.02 | 8.48 | 7.43 |  | 8.15 | 7.49
Cc1cc(Cl)cc(Cl)c1Nc1ccnc(Nc2ccc(C#N)cc2)n1 | 7.89 | 9.00 | 7.74 | 7.07 | < 5.00 |  | 7.22 | 
CC(C)Nc1cccnc1N1CCN(C(=O)c2cc3cc(NS(C)(=O)=O)ccc3[nH]2)CC1 [DELAVIRDINE] | 5.60 | 7.20 | 5.70 | 5.90 |  | 4.70 | 5.60 | 
Cc1cc(C#N)cc(C)c1Oc1ccnc(Nc2ccc(C#N)cc2)n1 | 8.57 | 8.96 | 7.43 | 7.72 | 6.10 |  | 7.14 | 7.03
N#Cc1ccc(Nc2nc(N)nc(Cc3c(Cl)cccc3Cl)n2)cc1 |  | 8.22 |  |  |  |  |  | 
Cc1cc(Cl)cc(C)c1Nc1ccnc(Nc2ccc(C#N)cc2)n1 | 7.89 | 8.68 | 7.72 | 6.94 | < 5.00 | 6.40 | 6.49 | 

Structure (SMILES) | pIC50 [1] | pIC50 [2] | pIC50 [3] | pIC50 [4] | pIC50 [5] | pIC50 [6, 8] | pIC50 [7] | pIC50 ([6]; mt4)
Cc1cccc(C)c1Nc1ccnc(Nc2ccc(C#N)cc2)n1 | 7.55 | 9.15 | 7.21 | 6.59 | < 5.00 |  | 6.67 | 
N#Cc1ccc(Nc2cc(N)nc(Cc3c(Cl)cccc3Cl)n2)cc1 | < 4.00 | 6.34 | < 4.00 | < 4.00 |  |  | < 4.00 | 
C=Cc1cnc(Nc2ccc(C#N)cc2)nc1Nc1c(C)cc(C)cc1C | 8.24 | 8.60 | 7.44 | 7.54 | < 4.00 | 6.97 | 7.46 | 
Cc1cc(C)c(Oc2ccnc(Nc3ccc(C#N)cc3)n2)c(C)c1 | 8.52 | 8.54 | 7.42 | 7.26 | 5.09 | 5.96 | 7.66 | 
Cc1cc(C)c(Nc2nc(Nc3ccc(C#N)cc3)ncc2Br)c(C)c1 | 8.14 | 8.26 | 7.44 | 7.57 | 6.46 | 6.55 | 7.96 | 
Cc1cc(C#N)cc(C)c1Nc1nc(Nc2ccc(C#N)cc2)ncc1Cl | 9.05 | 8.92 | 7.85 | 8.33 | 6.84 | 7.16 | 8.28 | 
Cc1cc(C#N)cc(C)c1Nc1ccnc(Nc2ccc(C#N)cc2)n1 | 8.72 | 9.40 | 8.15 | 8.11 | 5.96 |  | 7.47 | 7.43
Cc1cc(C#N)cc(C)c1Oc1nc(Nc2ccc(C#N)cc2)ncc1[N+](=O)[O-] | 8.00 | 7.74 | 6.52 | 6.11 | < 5.00 | 6.71 | 6.92 | 
Cc1cc(C)c(Nc2nc(Nc3ccc(C#N)cc3)ncc2C#N)c(C)c1 | 8.47 | 9.00 | 7.40 | 7.11 |  |  | 7.20 | 
C#Cc1cc(C)c(Oc2ccnc(Nc3ccc(C#N)cc3)n2)c(C)c1 | 7.92 | 8.26 | 6.77 | 7.30 | 5.38 | 6.10 | 6.73 | 
Cc1cc(Br)cc(C)c1Sc1ccnc(Nc2ccc(C#N)cc2)n1 | 7.41 | 8.24 | 7.17 | 7.36 | 5.41 | 6.45 | 6.76 | 
Cc1cc(C)c(Nc2nc(Nc3ccc(C#N)cc3)ncc2-c2ccccc2)c(C)c1 |  | 7.62 |  |  |  |  |  | 
Cc1cc(C#N)cc(C)c1Nc1nc(Nc2ccc(C#N)cc2)ncc1C#N | 8.59 | 9.30 | 7.12 | 8.07 | 6.51 | 6.74 | 7.04 | 
Cc1cc(C)c(Sc2ccnc(Nc3ccc(C#N)cc3)n2)c(C)c1 | 7.92 | 8.44 | 7.60 | 7.70 | 5.32 |  | 7.27 | 
Cc1cc(C)c(Nc2ccnc(Nc3ccc(C#N)cc3)n2)c(C)c1 [DAPIVIRINE] | 8.37 | 9.00 | 8.12 | 7.32 | < 5.00 | 7.36 | 7.74 | 
N#Cc1ccc(Nc2nc(N)cc(Cc3c(Cl)cccc3Cl)n2)cc1 | 7.92 | 9.00 | 6.76 | 7.15 |  |  | 6.52 | 
Cc1cc(C#N)cc(C)c1Oc1nc(Nc2ccc(C#N)cc2)ncc1Br | 8.85 | 8.85 | 7.66 | 8.23 | 7.31 | 7.60 | 8.18 | 
Cc1cc(Br)cc(C)c1Oc1ccnc(Nc2ccc(C#N)cc2)n1 | 8.33 | 8.54 | 7.23 | 7.10 | 5.63 | 6.66 | 6.95 | 
